Reference: publication PMC10301603, “Potent and Selective Benzothiazole-Based Antimitotics with Improved Water Solubility: Design, Synthesis, and Evaluation as Novel Anticancer Agents” (Pharmaceutics, 2023)

Assays:
Type in all cases: cell-based, human
HT-29 cells = assay: Cell growth inhibition (MTT) in the presence of 10 µM verapamil (sensitivity to MDR efflux pumps); conditions: 10 µM verapamil (P-gp/MDR1 inhibitor)
HeLa cells [1] = assay: Cell cycle analysis (PI, flow cytometry); conditions: 8 and 14 200 nM, 9 500 nM
Protocol: (§1) An amount of 8 × 10^4 cells/mL (HeLa, MCF7, or U87 MG cells) were seeded in 6-well plates (2 mL/well) and incubated in complete DMEM medium (see above) at 37 °C and 5% CO2 atmosphere for 24 h. Then, the medium was replaced with fresh complete DMEM in the presence or absence of the selected compounds (8, 9, and 14). The concentration of the compounds was selected according to their IC50 value for the antiproliferative activity in each cell line (see above, Section 2.4.4). HeLa cells were treated with 200 nM of compounds 8 and 14 and 500 nM of compound 9; MCF7 cells were treated with 100 nM of compounds 8 and 14 and 500 nM of compound 9; and U87 MG cells were treated with 50 nM of compound 8 and 100 nM of compounds 9 and 14. Untreated cells were used as negative controls. Cells were harvested 24, 48, or 72 h following treatment and fixed in ice-cold ethanol/PBS (7:3) overnight. Cells were then washed twice with PBS, suspended in PBS, and incubated overnight in darkness with 0.2 mg/mL RNase A (Sigma-Aldrich, St. Louis, MO, USA), 50 µg/mL propidium iodide (Sigma-Aldrich, St. Louis, MO, USA), and Triton 10× at room temperature. BD Accuri™ C6 Plus Flow Cytometer (BD Biosciences) was used to analyze samples, and BD Accuri™ C6 Software (version 1.0.264.21) was used for data analysis.

MCF7 cells [2] = assay: Cell cycle analysis (PI, flow cytometry); conditions: 8 and 14 100 nM, 9 500 nM
Protocol: as §1

HeLa cells [3] = assay: Apoptotic cell death quantification (Annexin V-FITC/PI); conditions: 72 h, 8 and 14 200 nM, 9 500 nM
Protocol: (§2) Annexin V-FITC/PI apoptosis detection kit (Immunostep, Salamanca, Spain) was used to quantify HeLa, MCF7, or U87 MG cells by following the manufacturer’s guidelines. An amount of 5 × 10^4 cells/mL were seeded in 12-well plates (1 mL/well) and incubated in complete DMEM medium (see above) at 37 °C and 5% CO2 atmosphere for 24 h. Then, the medium was replaced with fresh complete DMEM in the presence or absence of the selected compounds (8, 9, and 14). The concentration of the compounds was selected according to their IC50 value for the antiproliferative activity in each cell line (see above, Section 2.4.4). HeLa cells were treated with 200 nM of compounds 8 and 14 and 500 nM of compound 9; MCF7 cells were treated with 100 nM of compounds 8 and 14 and 500 nM of compound 9; and U87 MG cells were treated with 50 nM of compound 8 and 100 nM of compounds 9 and 14. Untreated cells were used as negative controls. After 72 h of incubation, cells were collected, centrifugated, resuspended in the Annexin V binding buffer, and stained with Annexin V-FITC/PI. Cells were then incubated in darkness for 15 min at room temperature. Samples were analyzed using BD Accuri™ C6 Plus Flow Cytometer (BD Biosciences), and acquired data were analyzed using BD Accuri™ C6 Software (version 1.0.264.21).

MCF7 cells [4] = assay: as above; conditions: MCF7, 72 h; 8 and 14 100 nM, 9 500 nM
Protocol: as §2

U87MG cells [5] = assay: as above; conditions: U87 MG, 72 h; 8 50 nM, 9 and 14 100 nM
Protocol: as §2

U87MG cells [6] = assay: Lactate dehydrogenase (LDH) release assay; conditions: 72 h
Protocol: CytoTox96® Non-Radioactive Cytotoxicity Assay kit (Promega, Madison, WI, USA) was used to measure the release of lactate dehydrogenase (LDH) by following the previously described method in [46]. Briefly, U87 MG or HEK-293 cells were incubated for 72 h with compounds 8, 9, or 14 at concentrations ranging from 10^−9 to 10^−6 M for U87 MG cells, and from 10^−4 to 10^−3 M for HEK-293 cells. After treatment, the supernatants were collected, and the intact attached cells were lysed using 0.1% (w/v) Triton X-100 in (0.9%) NaCl solution. Both the LDH released to culture media, as well as the LDH content within the cells, were determined spectrophotometrically at 490 nm on a 96-well plate reader (Infinite 200, Tecan, Salzburg, Austria) by following the manufacturer’s instructions. LDH release was defined by the ratio of LDH released/total LDH present in the cells, with the total LDH being 100%. All the samples were run in quadruplicate.

| IC50 (HT-29 cells) [nM] | Structure (SMILES) | G2/M population (HeLa cells [1]; 24 h) [%] | G2/M population (HeLa cells [1]; 48 h) [%] | sub G0/G1 population (HeLa cells [1]; 48 h) | sub G0/G1 population (HeLa cells [1]; 72 h) [%] | G2/M population (MCF7 cells [2]; MCF7, 24 h) [%] | G2/M population (MCF7 cells [2]; MCF7, 48 h) | SubG0/G1 population (MCF7 cells [2]; MCF7, 48 h) [%] | G2/M population (MCF7 cells [2]; MCF7, 72 h) | SubG0/G1 population (MCF7 cells [2]; MCF7, 72 h) [%] | early and late apoptosis (apoptotic cells) (HeLa cells [3]) [%] | apoptosis (apoptotic cells) (MCF7 cells [4]) [%] | cells in early or late apoptosis (response to Annexin V) (U87MG cells [5]) [%] | LDH release (U87MG cells [6]; 1 nM) | LDH release (U87MG cells [6]; 10 nM) | cell death (LDH release) (U87MG cells [6]; above 100 nM) [%] | Alive cells (PI−, AnV−) (MCF7 cells [4]) [%] | LDH release (U87MG cells [6]; 100 nM) [%] |
| --- | --- | --- | --- | --- | --- | --- | --- | --- | --- | --- | --- | --- | --- | --- | --- | --- | --- | --- |
| 307 | COc1ccc2nc(N(C=O)Cc3cccnc3)sc2c1 [Compound 14, N-(6-methoxybenzo[d]thiazol-2-yl)-N-(pyridin-3-ylmethyl)formamide] | 56 | 60 | 14–18% | 43 | 40 | 30–35% | 27 | 30–35% | 33 | 86 | 71 | 67 | around 10% | ~20% | 100 | – | – |
| 215 | CCNC(=O)N(Cc1cccnc1)c1nc2ccc(OC)cc2s1 [Compound 8] | 80 | 58 | 14–18% | 52 | 32 | – | 9 | – | 26 | 93 | 47 | 80 | ~40% | over 60% | – | 46 | 100 |
